Test results: ChEMBL document CHEMBL1201862, “PubChem BioAssay data set” (2004)
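In this assay, cells in 96-well plates receive the compound at five concentrations for 48 hours. Endpoints are linearly interpolated between the surrounding concentrations. GI50 = concentration required for 50% inhibition of growth.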 Calls of active or inactive are those of the source. Cut-off read from the data, not from the text of the source: active = GI50 up to about 1.1 µM and inactive = higher.

What was measured:
Assay in all cases: growth of human tumour cells (NCI), 48 h
SK-MEL-2 = tested on: SK-MEL-2
ACHN = tested on: ACHN
HL-60 = tested on: HL-60
HCT-116 = tested on: HCT-116
NCI/ADR-RES = tested on: NCI/ADR-RES
IGROV-1 = tested on: IGROV-1
SF-268 = tested on: SF-268
SF-539 = tested on: SF-539
NCI-H522 = tested on: NCI-H522
TK-10 = tested on: TK-10
MDA-N = tested on: MDA-N
OVCAR-5 = tested on: OVCAR-5
RPMI-8226 = tested on: RPMI-8226
LOX IMVI = tested on: LOX IMVI
U-251 = tested on: U-251
NCI-H226 = tested on: NCI-H226
UACC-257 = tested on: UACC-257
SNB-19 = tested on: SNB-19

Measured: GI50

O=C1/C(=C/c2cccs2)N=C(c2ccccc2)N1C1Nc2cc3c(cc2S1)NC(N1C(=O)/C(=C/c2cccs2)N=C1c1ccccc1)S3 (centres undefined)
inactive: SK-MEL-2 18.6 µM | ACHN 34.1 µM | HL-60 2.59 µM | HCT-116 15 µM | NCI/ADR-RES 13.9 µM | IGROV-1 32.1 µM | SF-268 20.2 µM | SF-539 14 µM | NCI-H522 13.4 µM | TK-10 41.5 µM | MDA-N 18.6 µM | OVCAR-5 27.7 µM | RPMI-8226 19.8 µM | LOX IMVI 15 µM | U-251 16 µM | NCI-H226 20.3 µM | UACC-257 71.9 µM

Cc1n[nH]c(C(F)(F)F)c1/N=N/N(C)C
inactive: SK-MEL-2 17.2 µM | ACHN 4.72 µM | HL-60 12.6 µM | HCT-116 1.93 µM | NCI/ADR-RES 7.13 µM | SF-268 11.4 µM | SF-539 5.28 µM | SNB-19 15.1 µM | NCI-H522 1.37 µM | TK-10 7.91 µM | MDA-N > 100 µM | RPMI-8226 2.14 µM | LOX IMVI 1.47 µM | U-251 11 µM | NCI-H226 1.95 µM | UACC-257 14.7 µM

Clc1ccc(C2=C(c3ccccc3)C(c3ccc(Cl)cc3)N3C(=N[C@H]4CCCC[C@@H]43)N2)cc1 (some centres undefined)
inactive: SK-MEL-2 16.4 µM | ACHN 11.2 µM | HL-60 3.19 µM | HCT-116 4.08 µM | NCI/ADR-RES 11.4 µM | IGROV-1 12.9 µM | SF-268 19.9 µM | SF-539 15.3 µM | SNB-19 14.5 µM | TK-10 10.5 µM | MDA-N 14.7 µM | OVCAR-5 16.3 µM | RPMI-8226 2.48 µM | LOX IMVI 11.8 µM | U-251 11.3 µM | NCI-H226 21 µM | UACC-257 14.9 µM

CN(C(=O)Cc1cc(Cl)c(Cl)cc1NC(=O)CCCN)[C@H]1CCCC[C@@H]1N1CCCC1
inactive: SK-MEL-2 21.9 µM | ACHN > 100 µM | HL-60 22.4 µM | HCT-116 29.9 µM | NCI/ADR-RES > 100 µM | IGROV-1 > 100 µM | SF-268 13.9 µM | SNB-19 19.8 µM | NCI-H522 15.8 µM | TK-10 57.8 µM | MDA-N 16.7 µM | OVCAR-5 37.8 µM | RPMI-8226 > 100 µM | LOX IMVI 18.6 µM | U-251 19.3 µM | NCI-H226 27 µM | UACC-257 19.1 µM

Cn1c(S)nc2c(Cl)cc(Cl)cc2c1=O
inactive: SK-MEL-2 > 100 µM | ACHN > 100 µM | HL-60 18.2 µM | HCT-116 > 100 µM | NCI/ADR-RES > 100 µM | IGROV-1 80.5 µM | SF-268 > 100 µM | SF-539 42.8 µM | SNB-19 > 100 µM | NCI-H522 44.1 µM | TK-10 > 100 µM | MDA-N > 100 µM | OVCAR-5 > 100 µM | LOX IMVI > 100 µM | U-251 > 100 µM | UACC-257 > 100 µM

Cc1ccc(C(=O)Cn2c(C(=O)/C=C/c3cccs3)nc3ccccc32)cc1
inactive: SK-MEL-2 12.6 µM | ACHN 61.4 µM | HL-60 22.7 µM | HCT-116 43.4 µM | NCI/ADR-RES 23.2 µM | IGROV-1 25 µM | SF-268 32.9 µM | SF-539 > 100 µM | SNB-19 58.1 µM | TK-10 53.2 µM | MDA-N 28.1 µM | OVCAR-5 > 100 µM | RPMI-8226 21.7 µM | LOX IMVI 26.2 µM | U-251 39.1 µM | NCI-H226 > 100 µM | UACC-257 24.4 µM

COc1cc(C2C(C#N)=C(N)OC3=C2CCS(=O)(=O)c2ccc(C)cc23)cc(OC)c1OC (centres undefined)
inactive: SK-MEL-2 > 100 µM | ACHN > 100 µM | HL-60 > 100 µM | HCT-116 > 100 µM | NCI/ADR-RES > 100 µM | IGROV-1 > 100 µM | SF-268 > 100 µM | SNB-19 > 100 µM | NCI-H522 > 100 µM | TK-10 > 100 µM | MDA-N > 100 µM | OVCAR-5 > 100 µM | RPMI-8226 > 100 µM | LOX IMVI > 100 µM | U-251 > 100 µM | NCI-H226 > 100 µM | UACC-257 > 100 µM

COC(=O)c1c(O)ccc2c1c1c(n2Cc2ccccn2)C(=O)c2ccccc2C1=O
inactive: SK-MEL-2 42.7 µM | ACHN 18.5 µM | HL-60 62.2 µM | HCT-116 79.8 µM | NCI/ADR-RES 41.3 µM | IGROV-1 26.4 µM | SF-268 35.9 µM | SF-539 17.1 µM | SNB-19 86.5 µM | NCI-H522 15.8 µM | TK-10 99.8 µM | MDA-N 97.5 µM | OVCAR-5 56.8 µM | RPMI-8226 25.3 µM | U-251 35.7 µM | NCI-H226 70.1 µM | UACC-257 > 100 µM
